US20230121245A1, “REGENERATIVE NONSTEROIDAL ANTI-INFLAMMATORY COMPOSITIONS, METHODS OF PRODUCTION, AND METHODS OF USE THEREOF” (CROWN SCIENTIFIC, L.L.C., priority 2021, published 2023)

System: TNFα
Test: LPS induced TNFα response in PBMCs (monocyte/macrophage model)
Assay type: cell-based, human
Conditions: 0.01-100 μM, compared to vehicle control (0.13% DMSO), 100 ng LPS, 24 hours
Description: Fresh leukoreduction system (LRS) cones of healthy donors aged 18-80 years old were purchased from Oklahoma Blood Institute. PBMCs were isolated from LRS cones using EasySep™ Direct Human PBMC Isolation Kit (cat #19654, StemCell Technologies) as per manufacturer's specifications. 1.5 million PBMCs were seeded in 0.5 ml of RPMI (11835030, Gibco) supplemented with 5% HPL (Millcreek), lx Glutamax (35050061, Gibco), 1×NEAA (11140050, Gibco) and 2 U/ml heparin (25021040030, Sagent Pharmaceuticals) in a 24 well plate and rested overnight. The following day, PBMCs were co-stimulated with 100 ng of lipopolysaccharide (LPS, 00-4976-93, Invitrogen) and different doses RNSA in a volume of 0.5 ml. RNSA doses were prepared in saline (R5201-01, Braun) supplemented with 5% HPL and 2 U/ml heparin. Betamethasone (Cayman, 20363), a positive control, was resuspended in DMSO (D4540, Sigma) and administered to PBMCs at different doses to a final 0.13% DMSO concentration. Vehicle for RNSA was 50% saline and for Betamethasone 0.13% DMSO for a 1 ml reaction. All samples were tested in technical triplicates. Treatment duration was 24 hours for all groups. After 24 hours, the supernatant was collected, spun at 5,000 g for 10 minutes and the cell free supernatant stored at −80 C. To detect TNFα, hTNFα Simple Plex assay quantification was performed on ELLA ELISA based detection method (ProteinSimple).

## C[C@H]1C[C@H]2[C@@H]3CCC4=CC(=O)C=C[C@]4(C)[C@@]3(F)[C@@H](O)C[C@]2(C)[C@@]1(O)C(=O)CO [Betamethasone]
  attenuation of TNFα response: 20-68%
